In patent publication US20240009170A1, “INHIBITION OF GLYCOGEN SYNTHASE KINASE-3 (GSK-3)” (Brown University, priority 2020, published 2024):

Experiments:
[1] = system: SW480 tumor cells; experiment: Co-culture of NK-92 natural killer cells and SW480 tumor cells; format: cell-based, Human
Experimental: (§1) Immune cell co-culture experiments. Co-culture experiments were conducted with GFP+ SW480 or HCT-116 colorectal cancer cells and either NK-92 natural killer cells or TALL-104 T cells in a 48-well plate, in the presence or absence of 9-ING-41. HCT-116 cells were labeled using CellTracker™ Green CMFDA (5-chloromethylfluorescein diacetate), immune cells (NK-92, TALL-104) were labeled using CellTracker™ Blue CMAC Dye (7-amino-4-chloromethylcoumarin), and ethidium homodimer-1 (EthD-1) was used as a marker of cell death (Invitrogen, Thermo Fisher Scientific, Waltham, MA, USA).
(§2) Co-culture experiments were conducted with GFP+ SW480 colorectal cancer cells and either NK-92 natural killer cells or TALL-104 T cells at various effector/target ratios in a 48-well plate, in the presence or absence of 9-ING-41.
The inventors co-cultured green fluorescent SW480 tumor cells with NK-92 natural killer cells at a 1:1 effector target cell ratio (E:T) for twenty-four hours and imaged by fluorescence microscopy. Ethidium homodimer was used to visualize dead cells. The inventors obtained photographic images of the co-cultured cells.
An average baseline amount of NK-92-mediated tumor cell killing of about 39% occurred in the absence of drug.

[2] = system: human colorectal cell lines (HCT-116, HT-29, KM12C); experiment: Cytokine, chemokine and growth factor profile of tumor cell culture supernatant (Luminex 200); format: cell-based
Experimental: Collection of cell culture supernatants used in cytokine measurements. Cells were plated at 3.5×10^4 cells in a 48-well plate (Thermo Fisher Scientific, Waltham, MA, USA) in complete medium and incubated at 37° C. with 5% CO2. At twenty-four hours after plating, almost all the tumor cells were adherent to the bottom of the flask and the complete medium was replaced with drug-containing medium. Subsequently, the culture supernatants were collected after forty-eight hours of incubation and were frozen at −80° C. until the measurement of cytokines was performed. The day of analysis, samples were thawed and centrifuged to remove cellular debris.
Human cytokine profiling. Human cell line culture supernatants were analyzed using an R&D systems Human Premixed Multi-Analyte Kit (R&D Systems, Inc., Minneapolis, MN, USA) and a Luminex 200 Instrument (LX200-XPON-RUO, Luminex Corporation, Austin, TX, USA) according to the manufacturer's instructions. Sample levels of TNF-α, 4-1BB/TNFRSF9/CD137, IL-8/CXCL8, Ferritin, IFN-β, IL-10, CCL2/JE/MCP-1, VEGF, CXCL13/BLC/BCA-1, IFN-γ, CCL20/MIP-3 α, CCL3/MIP-1 α, CCL22/MDC, CCL4/MIP-1 β, Fas Ligand/TNFSF6, IL-17/IL-17A, IL-2, BAFF/BLyS/TNFSF13B, GM-CSF, CXCLS/ENA-78, TRANCE/TNFSF11/RANK L, CXCL9/MIG, G-CSF, IFN-γ R1/CD119, VEGFR3/Flt-4, C-Reactive Protein/CRP, CXCL11/I-TAC, IL-21, CXCL14/BRAK, IL-6, Fas/TNFRSF6/CD95, TRAIL R3/TNFRSF10C, IL-4, CCL5/RANTES, PD-L1/B7-H1, CCL7/MCP-3/MARC, Chitinase 3-like 1, CXCL10/IP-10/CRG-2, IL-1β/IL-1F2, IL-7, Prolactin, CCL8/MCP-2, TRAIL R2/TNFRSF10B, M-CSF, IL-15, Granzyme B, IFN-α, TREM-1, IL-12/IL-23 p40, TRAIL/TNFSF10, CCL11/Eotaxin, and IL-18/IL-1F4. Sample values are reported in picograms per milliliter (pg/mL).
Cells were treated with 9-ING-41, a selective and potent small molecule inhibitor of GSK-3β, at doses up to 100 μM for seventy-two hours to determine IC10, IC30, IC50, and IC70. Cytokine, chemokine, and growth factor levels were analyzed in the tumor cell culture supernatants after treatment at IC10, IC30, IC50, and IC70 for forty-eight hours using a Luminex 200 multiplexing instrument.

[3] = system: SW480 tumor cells; experiment: Co-culture of CD8+ donor-derived healthy T cells and SW480 tumor cells; format: cell-based, Human
Experimental: Isolation of donor derived CD8+ T cells. An Easy Step Human CD8+ T Cell Isolation Kit was used to isolated CD8+ T cells from a donor PBMC sample via negative selection (Cat #, 17913, Stem Cell Technologies, Vancouver, Canada).
as §1
TALL-104 cells are a human leukemic T cell line. […] Healthy CD8+ T cells were isolated from a donor blood sample consistent with an IRB-approved protocol. A co-culture of GFP+ SW480 tumor cells and Green CM FDA-labeled CD8+ donor-derived healthy T cells was then treated with 9-ING-41 and the % of dead cells out of total cells was quantified after twenty-four hours. […] The data was then normalized, as described earlier.
Pre-treatment with 9-ING-41 sensitizes SW480 tumor cells to immune cell-mediated cell killing. […]

[4] = system: advanced malignancies; conditions: cited from earlier work
[5] = system: ovarian cancer; conditions: cited from earlier work
[6] = system: colorectal cancer cells; experiment: Co-culture with pre-treatment of effector or target cell population; format: cell-based, Human; conditions: target cells pre-treated before co-culture
Experimental: as §2, with “9-ING-41. Follow-up experiments compared the effect of pre-treating either the effector or the target cell population with 9-ING-41 before the co-culture experiment was started.” for “9-ING-41.”

Cn1cc(C2=C(c3coc4ccc(F)cc34)C(=O)NC2=O)c2cc3c(cc21)OCO3 [9-ING-41]
Natural Killer activity ([1]; IC50 dose, 1:1 E:T, 24 hours): stimulation of Natural Killer activity
natural killer (NK-92) cell killing of colorectal cancer cells ([1]; compared to controls without drug treatment): significant increase
shed PD-L1 ([2]; colorectal cancer cell lines, regression slope analysis, 48 hours): decreases
overall cytokine levels ([2]; increasing doses (IC10-IC70), 48 hours): decreasing trend
VEGF ([2]; increasing doses, 48 hours, supernatant): most prominently decreased
expression of chemokine CXCL14 (BRAK) ([2]; increasing doses, supernatant): increase
macrophage colony-stimulating factor (M-CSF) ([2]; supernatant): decrease
tumor cell death in co-cultures with CD8+ donor-derived healthy T cells ([3]; 24 hours, normalized): Even more impressive tumor cell death
tumor cell death after tumor cell pre-treatment, CD8+ T cells ([3]; pre-treatment of tumor cells, 24 hours of co-culture): statistically significant increase in tumor cell death
clinical response ([4]; a patient with BRAF V600E metastatic melanoma, previously treated): complete response
increased infection or opportunistic/unusual infections ([4]; even in patients with extensive prior cytotoxic therapy): no evidence of increased infection
attributable Grade 3 or 4 serious adverse events ([4]; monotherapy and combination with standard chemotherapy, NCT03678883): without attributable Grade 3 or 4 serious adverse events
myelosuppression ([4]; patients): not associated with myelosuppression of any degree
safety profile ([4]; preliminary results from ongoing clinical trials): excellent safety profile devoid of myelosuppressive and immunosuppressive effects
activity compared with lithium and other ATP-competitive inhibitors such as SB216763 [5]: more active
cell-killing after pre-treatment of the target tumor cells [6]: bolstered cell-killing
